Measured values published in US11260050B2, “Combination of cotinine plus antioxidant for treatment-resistant depression and correction of astrocytes functional deficit induced by depression and other neuropathological” (UNIVERSIDAD SAN SEBASTIAN, priority 2017, dated 2022).

Key:
calcineurin A = assay: Western blot of calcineurin A in the hippocampus (Example 4); format: in vivo, Mice C57BL/6; conditions: conditioned mice after extinction; vs PBS-treated conditioned mice
Description: Three-month-old mice (n=5-6/condition) were weighed and assigned to treatment groups. Mice were treated with vehicle or drugs, starting two h after fear conditioning and daily after behavioral testing until euthanasia. Mice received daily treatments with 1. PBS (phosphate buffer saline, pH 7.4) via intranasal; 2. Cotinine (10 mg/ml) dissolved in PBS via intranasal (IN Cot, 24 μl); 3. Krill oil dissolved in PBS, via intranasal (48 mg/ml, 24 μl); 4. Cotinine (10 mg/ml) plus krill oil dissolved in PBS, via intranasal (48 mg/ml, 24 μl); 5. […] The dose of cotinine was ten times lower than the dose of oral cotinine promoting fear extinction in C57BL/6 mice.
After the behavioral testing, mice from all treatment groups were euthanized via cervical dislocation by a well-trained investigator. Brain regions of interest were dissected and stored at −20° C. for protein analyses. Each brain was divided into two parts, left and right hemispheres. […] The protein concentration of the supernatants was measured using the Bio-Rad protein assay (Bio-Rad, Hercules, Calif., USA). […] Membranes were washed with TBST and incubated with HRP-conjugated secondary antibodies (Bio-Rad) for 1 h at RT, washed with TBST and TBS, and images were acquired using My ECL imaging system and analyzed using the NIH Image J software.

[1] = system: mice subjected to fear conditioning; assay: Porsolt test after fear conditioning (Example 1, Experiment 3); format: in vivo, C57BL/6 mice; conditions: FC mice, IN post-treatment; cotinine p<0.01, combination p<0.05
Description: Mice were treated via IN 2 hours after fear conditioning and continuously until euthanasia.
Mice (n=5-6/condition) received daily treatments with 1. PBS (phosphate buffer saline, pH 7.4) via intranasal (2×12 μl/nostril), 2. Cotinine dissolved in PBS via intranasal (Cot IN, 10 mg/ml, 2×12 μl/nostril); 3. Cotinine+krill oil both dissolved in PBS via intranasal (Cot IN, 10 mg/ml+KO, 48 mg/ml, 2×12 μl/nostril).
Contextual FC was performed as described. The conditioning chamber used is surrounded by a sound-attenuating box with a camera connected to freeze frame software (MED Associates Inc.), also equipped to provide a background white noise (72 dB). The conditioning chamber (33 cm×20 cm×22 cm) contains in one side a speaker and in the opposite slide has a 24V light. The chamber has a 36-bar insulated shock grid floor. […] Freezing behavior that is defined as the absence of all movement except the one needed for breathing was assessed using the FreezeView Software (MED Associates Inc.).
This test is used to measure the antidepressant effects of drugs, and consists in placing each mouse in a transparent cylinder filled with water at room temperature (RT). […] The immobility time will be recorded during a 15-min and a next day 5-min trial. The time spent by each mouse immobile will be recorded.

restrained mice = assay: Forced swim test after chronic restraint stress (Example 2); format: in vivo, C57BL/6 male mice; conditions: IN cotinine post-treatment, p<0.01
Description: Mice between 2-3 months of age after one week of acclimatization were randomly divided into two groups. Stressed mice were subjected to restraint stress. Control (non-restrained) mice were allowed to move freely during this period. After the stress exposure period, mice were divided into three experimental groups: 1) Non-restrained mice treated with vehicle (PBS, pH 7.4) serving as unstressed controls (n=8); 2) Restrained mice (RS) treated with vehicle (n=8); 3), RS mice treated with 24 μl of a cotinine solution (10 mg/ml in PBS, pH 7.4) via intranasal route of administration (n=6). Treatments were administered daily until euthanasia. After two weeks of treatments mice were behaviorally tested and euthanized (FIG. 10) Intranasal delivery was performed as previously described (Hanson and Frey, 2007). Mice at 2-3 months of age were hand-restrained, positioned in a supine position, and administered two 12 μl drops of cotinine solution (10 mg/ml in PBS), or PBS alone, into both nares. Mice were given an extra 12 μl treatment drop if the mouse expelled out the solution. Mice were kept in the supine posture for 5 seconds after delivery to facilitate the delivery. The administration was performed daily until euthanasia. […] Mice were placed in a transparent cylinder filled with water at 25° C. for 5 min and behavior was recorded. […]

Q: What does the source list for CN1C(=O)CC[C@H]1c1cccnc1 [Cotinine, (5S)-1-methyl-5-(3-pyridyl) pyrrolidin-2-one]?
A: calcineurin A levels in the hippocampus (calcineurin A): significantly different from PBS-treated conditioned mice; depressive-like behavior (freezing) in the Porsolt test [1]: significant decrease in depressive-like behavior; immobility in the forced swim test (restrained mice): significantly lower than PBS-treated restrained mice
